The record followed here is PubChem BioAssay (NCI).

Several values for one entry are separate records, joined by “and”; a condition that tells them apart may be missing. Identical values can stand only once.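 Compound exposure: 48 hours, 5 concentrations, 96-well plates. Abbreviation: GI50, concentration required for 50% inhibition of growth. Definition used: TGI = concentration required for complete inhibition of growth.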 Some results are limits rather than exact numbers.

Some test systems named below: M19-MEL melanoma; HL-60(TB) leukemia; 786-0 renal; RXF 393 renal; LXFL 529 NSCLC; TK-10 renal; SK-MEL-28 melanoma; K-562 leukemia; SK-MEL-5 melanoma; SF-539 CNS.
Experiment in all cases: NCI anticancer screen, dose series, 48 h

Consider `OCC1OC(n2cnc3c2NC=NC[C@H]3O)CC1O` (stereo partly specified), for which the GI50 is greater than 588 µM with M19-MEL melanoma; 219 µM in the assay with HL-60(TB) leukemia; greater than 588 µM in the assay with 786-0 renal; greater than 588 µM with RXF 393 renal; greater than 588 µM in the assay on LXFL 529 NSCLC; greater than 588 µM in the assay with SK-MEL-28 melanoma. In addition, the GI50 is greater than 588 µM in the assay with K-562 leukemia; greater than 588 µM in the assay with SK-MEL-5 melanoma; 405 µM and > 588 µM with SF-539 CNS. Moreover, the TGI with M19-MEL melanoma is 460 µM and > 588 µM; in the assay on HL-60(TB) leukemia, 465 µM and > 588 µM; with 786-0 renal, 500 µM and > 588 µM; in the assay with RXF 393 renal, 500 µM and > 588 µM; with LXFL 529 NSCLC, greater than 588 µM; in the assay on TK-10 renal, greater than 500 µM. The TGI is 500 µM and > 588 µM with SK-MEL-28 melanoma; 474 µM and > 588 µM in the assay with K-562 leukemia; 499 µM and > 588 µM with SK-MEL-5 melanoma; 461 µM and > 588 µM in the assay with SF-539 CNS.

Take `CN(C)C1=NC2=S(SC(Nc3ccccc3)=N2)S1` (stereo unspecified): the TGI was greater than 100 µM with M19-MEL melanoma; greater than 100 µM in the assay on HL-60(TB) leukemia; greater than 100 µM in the assay on 786-0 renal; greater than 100 µM in the assay on RXF 393 renal; 62.9 µM in the assay with LXFL 529 NSCLC; 85.5 µM in the assay on TK-10 renal. In addition, the TGI in the assay on SK-MEL-28 melanoma was 56.2 µM; in the assay on K-562 leukemia, greater than 100 µM; with SK-MEL-5 melanoma, 28.8 µM; in the assay on SF-539 CNS, 60.6 µM.

For the molecule `O=C(c1nc2ccc(Cl)cc2[nH]c1=O)C(O)c1ccc2c(c1)OCO2` (stereo unspecified), the TGI with M19-MEL melanoma, in the assay on HL-60(TB) leukemia, with 786-0 renal, with RXF 393 renal, with LXFL 529 NSCLC and in the assay with TK-10 renal was greater than 100 µM each time. The TGI with SK-MEL-28 melanoma and in the assay on K-562 leukemia was greater than 100 µM in each case.

On to `COc1ccc(C(=O)CC(=O)C(=O)Nc2ccc(C)c(C)c2)cc1`, for which the TGI with M19-MEL melanoma was greater than 100 µM; in the assay with HL-60(TB) leukemia it was greater than 64.3 µM; with 786-0 renal it was greater than 100 µM; with RXF 393 renal, 97.9 µM; in the assay on LXFL 529 NSCLC it was greater than 100 µM; in the assay on TK-10 renal, greater than 100 µM. Besides, the TGI in the assay with SK-MEL-28 melanoma is greater than 100 µM; with K-562 leukemia, greater than 87 µM; with SK-MEL-5 melanoma it was greater than 100 µM; in the assay on SF-539 CNS it was greater than 100 µM.

Turning to `CCCc1nc(NC#N)nc(C(=O)NC23CC4CC(CC(C4)C2)C3)c1C`, the TGI with M19-MEL melanoma, in the assay on HL-60(TB) leukemia, with 786-0 renal, with RXF 393 renal, in the assay with LXFL 529 NSCLC and in the assay on TK-10 renal was greater than 100 µM throughout. Besides, the TGI with SK-MEL-28 melanoma, with K-562 leukemia, with SK-MEL-5 melanoma and in the assay on SF-539 CNS was greater than 100 µM each time.

For the molecule `O=NN/C(=C1\Nc2ccc([N+](=O)[O-])cc2NC1=O)C(O)c1ccc([N+](=O)[O-])cc1` (stereo unspecified), the TGI in the assay on M19-MEL melanoma, in the assay with HL-60(TB) leukemia, in the assay with 786-0 renal, with RXF 393 renal, with LXFL 529 NSCLC and in the assay on SK-MEL-28 melanoma was greater than 100 µM in each case. For the same molecule, the TGI in the assay with K-562 leukemia, with SK-MEL-5 melanoma and with SF-539 CNS was greater than 100 µM throughout.

For `CSc1nc(C)c(Br)c(=O)n1C1OC(COC(C)=O)C(OC(C)=O)C(OC(C)=O)C1OC(C)=O` (stereo unspecified), the GI50 in the assay on M19-MEL melanoma was > 100 µM and 44.6 µM; with 786-0 renal it was 74 µM and 26.3 µM; with LXFL 529 NSCLC, > 100 µM and 32.1 µM; in the assay on TK-10 renal, 43.1 µM and 20.6 µM; with SK-MEL-28 melanoma, > 100 µM and 21 µM; with SK-MEL-5 melanoma, > 100 µM and 19.2 µM. In the assay with SF-539 CNS, the GI50 was > 52.8 µM and 18.6 µM. In addition, the TGI is greater than 100 µM in the assay with M19-MEL melanoma; greater than 100 µM in the assay with HL-60(TB) leukemia; > 100 µM and 48.5 µM in the assay on 786-0 renal; 49.2 µM and 40.7 µM in the assay on RXF 393 renal; > 100 µM and 76.4 µM in the assay with LXFL 529 NSCLC; > 100 µM and 55.9 µM in the assay with TK-10 renal. In addition, the TGI is > 100 µM and 57 µM in the assay on SK-MEL-28 melanoma; greater than 100 µM with K-562 leukemia; > 100 µM and 50.7 µM in the assay with SK-MEL-5 melanoma; > 80.2 µM and 34.4 µM in the assay with SF-539 CNS.

For the molecule `COC(=O)CS(=O)c1ccccc1` (stereo unspecified), the TGI is greater than 100 µM in the assay on M19-MEL melanoma; 37 µM with HL-60(TB) leukemia; 72.4 µM in the assay on 786-0 renal; 49.2 µM in the assay on RXF 393 renal; greater than 100 µM with LXFL 529 NSCLC; greater than 100 µM in the assay with TK-10 renal. The TGI with SK-MEL-28 melanoma was greater than 100 µM; with K-562 leukemia it was greater than 100 µM; in the assay on SK-MEL-5 melanoma, greater than 100 µM; in the assay with SF-539 CNS it was 44.1 µM.

On to `CCCCCCCCCCCCCCCCCC(=O)OCC(C[As](=O)(O)O)OC(=O)CCCCCCCCCCCCCCCCC` (stereo unspecified), for which the TGI was greater than 100 µM in the assay with M19-MEL melanoma; greater than 100 µM in the assay on HL-60(TB) leukemia; greater than 100 µM in the assay on 786-0 renal; 47 µM in the assay with RXF 393 renal; greater than 100 µM in the assay on LXFL 529 NSCLC; greater than 100 µM in the assay on TK-10 renal. Besides, the TGI in the assay with SK-MEL-28 melanoma, in the assay on K-562 leukemia, in the assay on SK-MEL-5 melanoma and with SF-539 CNS was greater than 100 µM each time.

Take `O=C(O)c1cccc2cccc(C(=O)O)c12.[Hg]`: the GI50 is 10.4 µM in the assay with M19-MEL melanoma; 19.3 µM with HL-60(TB) leukemia; 15.4 µM with 786-0 renal; 16.8 µM in the assay with RXF 393 renal; 14.6 µM in the assay on LXFL 529 NSCLC; 20.3 µM in the assay with TK-10 renal. The GI50 is 14.9 µM in the assay with SK-MEL-28 melanoma, 1.5 µM in the assay with K-562 leukemia and 14 µM in the assay with SK-MEL-5 melanoma. The TGI worked out at 23.3 µM in the assay on M19-MEL melanoma; 42.2 µM with HL-60(TB) leukemia; 29.1 µM with 786-0 renal; 32.3 µM in the assay on RXF 393 renal; 28.1 µM in the assay on LXFL 529 NSCLC; 34.6 µM in the assay with TK-10 renal. Further, the TGI with SK-MEL-28 melanoma came out at 29.3 µM; in the assay with K-562 leukemia, 15.5 µM; in the assay with SK-MEL-5 melanoma, 27 µM.

For `Brc1ccccc1C=NC12CC3CC(CC(C3)C1)C2`, the TGI in the assay with M19-MEL melanoma is greater than 100 µM; with HL-60(TB) leukemia, 4.37 µM; in the assay on 786-0 renal it was greater than 100 µM; with RXF 393 renal, greater than 100 µM; in the assay with LXFL 529 NSCLC, greater than 100 µM; with TK-10 renal, greater than 100 µM. Moreover, the TGI with SK-MEL-28 melanoma, with K-562 leukemia, with SK-MEL-5 melanoma and in the assay with SF-539 CNS was greater than 100 µM each time.
